“And” between values parts separate entries of the source, which are not always exact repeats. Equal entries are not always repeated. Where two headings read alike, the source gives them in different places.
Key:
[1] = Experiment 1: hepatic portal vein samples of rats after oral Example Compound 35; format: in vivo, female Sprague-Dawley rats; settings: 20 mg/kg, portal vein; for [Par. Cmp. A]: listed as Par. Cmp. A
Source text: It is believed that Example Compound 35 metabolizes in vivo into Parent Compound A (i.e., it is believed that Example Compound 35 is a prodrug of Parent Compound A). The objective of this study was to determine the concentration of Example Compound 35 and Parent Compound A in hepatic portal vein samples of female Sprague-Dawley rats following oral administration of only Example Compound 35, and to quantify the extent of transport into hepatic portal circulation, if any, of Example Compound 35. A second objective was to determine the relative bioavailability of Parent Compound A in the portal vein following oral administration of Example Compound 35.
Experiment 1. Three female Sprague Dawley rats (200-215 g, Harlan Laboratories, Indianapolis, Ind.) with cannulae implanted surgically in the portal vein for blood sampling were used in this study. Example Compound 35, formulated in 50 mM Glycine pH 3.0 with 0.5% HPMC and 0.05% Tween-80, was administered by oral gavage (PO) at a dose of 20 mg/kg in a volume of 2 mL/kg. This dose is the molar equivalent of a 13.5 mg/kg dose of Parent Compound A. Portal blood samples were collected through the portal vein cannula from each animal at 0.25, 0.5, 1, 2, 4, and 8 hours following administration of compound. Samples were split into two fractions and one was supplemented with citrate buffer (final concentration 100 mM, pH 3.0) to stabilize Example Compound 35 and stop conversion of Example Compound 35 to Parent Compound A ex vivo during analysis. Samples were then processed to generate plasma and analyzed for Example Compound 35 by LC-MS/MS. Plasma derived from the second aliquot of blood was analyzed for Parent Compound A.
Pharmacokinetic parameters estimated for Parent Compound A included the maximum observed drug concentration (Cmax), time of maximum observed drug concentration (Tmax), apparent terminal half-life (t1/2), area under the concentration-time curve from time zero to 8 hours postdose (AUC(0-8)), and area under the concentration-time curve extrapolated to infinity (AUC(0-inf)). The bioavailability (% F) of Parent Compound A in portal vein samples relative to IV administration was also estimated.
Plasma samples were analyzed for Example Compound 35 or Parent Compound A concentration using a LC-MS/MS method. All sample runs met standard acceptance criteria for discovery purposes, and were based on a standard curve containing at least 7 points. At least half of quality control samples at each of the three concentrations tested, and two thirds of the entire quality control sample pool, were within 15% of their theoretical value. The r^2 value for each standard curve was ≧0.99. The quantitation range for the Example Compound 35 and Parent Compound A assays was 1 to 100 ng/mL and 5 to 2,500 ng/mL, respectively, using a 0.05 mL sample volume.
The data were entered into the PK software package WinNonlin® version 5.1.1. A complete data check was conducted to verify the accuracy of data entry.
Pharmacokinetic parameters were estimated on median plasma concentrations using extravascular input (PO). Nominal collection times after administration of compound were used for PK analyses. The use of a non-compartmental model provided an adequate fit of the data. Pharmacokinetic parameters estimated for Parent Compound A included the maximum observed drug concentration (Cmax), time of maximum observed drug concentration (Tmax), apparent terminal half-life (t1/2), apparent volume of distribution (Vz obs), apparent clearance (C1 obs), area under the concentration-time curve from time zero to 8 hours postdose of Example Compound 35 […], and area under the concentration-time curve extrapolated to infinity (AUC(0-inf)). Example Compound 35 was detected in only one 0.25 hour hepatic portal vein sample at 1.29 ng/mL. Any Example Compound 35 present in all of the other samples was below the quantitation limit of 1 ng/mL and pharmacokinetic parameters were not determined for those samples. […]

[2] = test system: HT1080 human fibrosarcoma cancer cells; test: Anti-tumor activity in HT1080 human fibrosarcoma xenograft with twice daily dosing; format: in vivo; settings: for tumor regression: by Day 8
Experimental: One million HT1080 cells were implanted subcutaneously in the right flank of female nude mice (Crl:NU-Fox1^nu). When the median tumor volume (MTV) was approximately 209 mm^3, mice were randomized into four cohorts of ten animals. […] All cohorts were dosed twice daily for 7 days. The mice were observed daily for mortality and signs of toxicity. Tumor volumes and body weights were determined from Days 1 to 22. The results are depicted in FIG. 4.

Compound: O=C(NCc1cccnc1)Nc1ccc(OCCc2ccccc2-c2ccccc2)cc1 [Parent Compound A, 1-{4-[2-(Biphenyl-2-yl)ethoxy]phenyl}-3-(pyridin-3-ylmethyl)urea]
- concentration at 0.25 h ([1]; female, Sprague-Dawley, rat, plasma (hepatic portal vein), po, 0.25 hr after oral Example Compound 35 20 mg/kg, read-out: Median [Par. Cmp. A]): 961 ng/mL
- concentration at 0.5 h ([1]; female, Sprague-Dawley, rat, plasma (hepatic portal vein), po, 0.5 hr after oral Example Compound 35 20 mg/kg, read-out: Median [Par. Cmp. A]): 2820 ng/mL
- concentration at 1 h ([1]; female, Sprague-Dawley, rat, plasma (hepatic portal vein), po, 1 hr after oral Example Compound 35 20 mg/kg, read-out: Median [Par. Cmp. A]): 2460 ng/mL
- concentration at 2 h ([1]; female, Sprague-Dawley, rat, plasma (hepatic portal vein), po, 2 hr after oral Example Compound 35 20 mg/kg, individual rats, read-out: [Par. Cmp. A]): 1800 ng/mL
- concentration at 2 h ([1]; female, Sprague-Dawley, rat, plasma (hepatic portal vein), po, 2 hr after oral Example Compound 35 20 mg/kg, read-out: Median [Par. Cmp. A]): 1930 ng/mL
- concentration at 4 h ([1]; female, Sprague-Dawley, rat, plasma (hepatic portal vein), po, 4 hr after oral Example Compound 35 20 mg/kg, read-out: Median [Par. Cmp. A]): 1000 ng/mL
- concentration at 8 h ([1]; female, Sprague-Dawley, rat, plasma (hepatic portal vein), po, 8 hr after oral Example Compound 35 20 mg/kg, read-out: Median [Par. Cmp. A]): 41 ng/mL
- [Par. Cmp. A] ([1]; 0.25 hr after oral Example Compound 35 20 mg/kg, individual rats): 417.4 ng/mL and 2,306.7 ng/mL and 961.4 ng/mL
- [Par. Cmp. A] ([1]; 0.5 hr after oral Example Compound 35 20 mg/kg, individual rats): 2,819.4 ng/mL and 2,818.9 ng/mL and 577.7 ng/mL
- [Par. Cmp. A] ([1]; 1 hr after oral Example Compound 35 20 mg/kg, individual rats): 1,064.4 ng/mL and 2,455.1 ng/mL and 3,237.2 ng/mL
- [Par. Cmp. A] ([1]; 2 hr after oral Example Compound 35 20 mg/kg, individual rats): 2,398.5 ng/mL and 1,930.2 ng/mL
- [Par. Cmp. A] ([1]; 4 hr after oral Example Compound 35 20 mg/kg, individual rats): 1,004.3 ng/mL and 2,254.2 ng/mL and 177.4 ng/mL
- [Par. Cmp. A] ([1]; 8 hr after oral Example Compound 35 20 mg/kg, individual rats): 41.0 ng/mL and 378.5 ng/mL and 15.9 ng/mL
- tumor growth inhibition relative to vehicle ([2]; 3 mg/kg orally twice daily for seven days, Day 21): 60%
- MTV increase ([2]; 3 mg/kg orally twice daily for seven days, end of dosing, Day 9): 221%
- MTV increase ([2]; 3 mg/kg orally twice daily for seven days, end of the study, Day 21): 622%
- tumor growth inhibition relative to vehicle ([2]; 4 mg/kg orally twice daily for seven days, Day 21): 81%
- tumor regression ([2]; 4 mg/kg orally twice daily for seven days): 13%
- MTV as % of the initial value ([2]; 4 mg/kg orally twice daily for seven days, end of dosing, Day 9): 87%
- MTV increase ([2]; 4 mg/kg orally twice daily for seven days, end of the study, Day 21): 296%
- tumor growth inhibition relative to vehicle ([2]; 5 mg/kg orally twice daily for seven days, Day 21): 85%
- tumor regression ([2]; 5 mg/kg orally twice daily for seven days): 22%
- MTV as % of the initial value ([2]; 5 mg/kg orally twice daily for seven days, end of dosing, Day 9): 78%
- MTV increase ([2]; 5 mg/kg orally twice daily for seven days, end of the study, Day 21): 235%
- tumor growth inhibition relative to vehicle ([2]; 7 mg/kg orally twice daily for seven days, Day 21): 89%
- tumor regression ([2]; 7 mg/kg orally twice daily for seven days): 78%
- MTV as % of the initial value ([2]; 7 mg/kg orally twice daily for seven days, end of dosing, Day 9): 22%
- MTV increase ([2]; 7 mg/kg orally twice daily for seven days, end of the study, Day 21): 175%
- tumor growth inhibition relative to vehicle ([2]; 9 mg/kg orally twice daily for seven days, Day 21): 95%
- tumor regression ([2]; 9 mg/kg orally twice daily for seven days): 61%
- MTV as % of the initial value ([2]; 9 mg/kg orally twice daily for seven days, end of dosing, Day 9): 39%
- MTV increase ([2]; 9 mg/kg orally twice daily for seven days, end of the study, Day 21): 85%
- animals with tumor volumes exceeding 1,500 mm^3 euthanized ([2]; Parent Compound A study, 3 mg/kg, cohort of ten): three
- deaths ([2]; Parent Compound A study, 4 mg/kg, cohort of ten, two found dead, one euthanized for tumor volume): three
- animals with no detectable tumor by the end of the study ([2]; Parent Compound A study, 5 mg/kg, cohort of ten): One
- animals with no detectable tumor by the end of the study ([2]; Parent Compound A study, 7 mg/kg, cohort of ten): One
- animals with no detectable tumor by the end of the study ([2]; Parent Compound A study, 9 mg/kg, cohort of ten): One
- anti-tumor activity in the HT1080 xenograft model (summary statement) ([2]; administered orally, twice daily, all doses tested): significant anti-tumor activity
- maximal reduction in median body weight ([2]; over the course of the study, all doses tested, orally twice daily): < 10 % of the initial weight
- Tolerability ([2]; xenograft mice, all doses tested, orally twice daily): well tolerated

Reference: patent US20150344426A1, “COMPOUNDS AND THERAPEUTIC USES THEREOF” (ALZHEIMER'S INSTITUTE OF AMERICA, INC., priority 2012, published 2015)
